Source: patent publication US8680145B1, “Compositions and methods for treatment of fear of medical procedures” (priority 2013, dated 2014)

Assays:
[1] = system: subject with dental phobia; experiment: Routine dental checkup (cleaning and examination) of a subject with dental phobia after proglumide (Example 1); assay type: in vivo, human
Text: Proglumide was obtained from commercial suppliers and/or pharmacies, and loaded into capsules. A subject with dental phobia, who had not been to a dentist in many years, agreed to undergo a routine dental checkup visit (cleaning and examination), and to take proglumide prior to the dental visit. […] Furthermore, the subject was willing to return for a follow-up visit within one week in order to replace an aged filling, a procedure that was not deemed urgent and easily could have been delayed.

human patients = settings: cited from earlier work
[2] = chronic administration (Kellstein 1990); cited from earlier work
rats = settings: opiate-naïve and morphine-tolerant rats (Watkins 1985); cited from earlier work
[3] = system: subject with dental phobia; experiment: Replacement of an aged metal filling in the same subject after proglumide (Example 2); assay type: in vivo, human; settings: capsule 200 mg proglumide 90 minutes prior; local anesthetic given by dentist
Experimental: Proglumide was obtained from commercial suppliers and/or pharmacies, and loaded into capsules. The same subject as in Example 1 returned to the dentist five days after the dental checkup of Example 1 in order to replace an aged metal filling. Again, proglumide was administered to the subject in advance of the appointment. […] The dentist administered a local anesthetic (e.g., lidocaine) painkiller as part of the procedure for replacing the filling. The residual discomfort following the procedure, including after the numbness wore off, was mild.

[4] = cited from earlier work

Compound: CCCN(CCC)C(=O)C(CCC(=O)O)NC(=O)c1ccccc1 (stereo not shown) [proglumide, Proglumide]
- Total discomfort ([1]; capsule 100 mg proglumide ninety minutes prior to dental appointment): low enough that the subject would be willing to return to a regular dental checkup schedule
- Subject-reported pain during calculus removal ([1]; capsule 100 mg proglumide ninety minutes prior to dental appointment, relative to previous dental visits without proglumide): substantially reduced
- Post-checkup pain (tender gums, sensitivity while chewing) ([1]; capsule 100 mg proglumide ninety minutes prior, relative to after previous dental checkups): significantly reduced
- Augmentation of morphine analgesia, treatment vs control groups (human patients; cancer pain management (Bernstein 1998) and post-operative patients (Lehmann 1989)): no difference
- Analgesic efficacy of morphine (human patients; human patients with chronic pain (McCleane 1998)): enhances
- Efficacy as a long-term adjunct to opiate treatment for chronic pain [2]: ineffective
- Morphine analgesia (rats): potentiates
- Residual discomfort following the procedure, including after the numbness wore off [3]: mild
- Placebo analgesia ([4]; Benedetti 1995): enhance
- Nocebo hyperalgesia ([4]; Benedetti 2006): block
